Reference: patent US7973218B2, “Methods and compositions for controlling weeds” (Pioneer Hi-Bred International, Inc., priority 2005, dated 2011)
Where two headings read alike, the source gives them in different places.

Tests used:
[1] = tested on: Parent elite stiff stalk inbred corn; assay: Preemergence herbicide application to potted corn (fresh weight, visual injury); format: in vivo; settings: for Crop visual injury at 200 g/ha: Zea mays, pre-emergence, 672 h, read-out: % Visual Injury; for Fresh Weight: fresh shoots weighed 4 weeks after treatment, untreated 36.7 g
[2] = tested on: Heterozygous GAT-HRA corn; assay: as above; format: in vivo; settings: for Crop visual injury at 200 g/ha: Zea mays, pre-emergence, 672 h, read-out: % Visual Injury; for Fresh Weight: fresh shoots weighed 4 weeks after treatment, untreated 47.0 g
[3] = tested on: Parent elite stiff stalk inbred corn; assay: Postemergence herbicide application to potted corn (fresh weight, visual injury); format: in vivo; settings: for Fresh Weight: weighed 2 weeks after treatment, untreated 76.4 g; for % visual injury to corn at 200 g/ha / % Visual Injury: 0% no injury, 100% plant death
[4] = tested on: Heterozygous GAT-HRA corn; assay: as above; format: in vivo; settings: for Visual crop injury (%) at 200 g/ha / % Visual Injury: 0% no injury, 100% plant death; for Fresh Weight: weighed 2 weeks after treatment, untreated 98.8 g
GAT-HRA maize = assay: Postemergence herbicide spray of maize at V2 stage, injury evaluated 10-14 days after; format: in vivo; settings: 200 g ai/ha (metsulfuron-methyl 35 g ai/ha)
Description: GAT-HRA maize plants were evaluated for tolerance to glyphosate and other herbicides. One protocol used in this evaluation was as follows. At the V2 stage (Ritchie and Hanway (1982), “How a corn plant develops” Spec. Rep. 48. (Coop. Ext. Ser., Iowa State Univ., Ames, Iowa)), plant heights were measured and herbicides were applied by spray application. Ten to fourteen days after the spray application, the transgenic plants were evaluated for injury symptoms and measured for plant height again in order to determine plant growth rates.
Plants were then evaluated at various times after treatment, such as 10 or 14 days after treatment. […] Leaf samples were taken from GAT-HRA plants and used in quantitative PCR analysis and other analyses to determine the number and arrangement of copies of the GAT and HRA polynucleotides that had been integrated into the plant genome.
Other protocols for evaluation included treatment with imidazolinone herbicides, such as the commercial herbicide Lightning® (a combination of imazapyr and imazethapyr), which was applied to GAT-HRA maize at the V2 leaf stage at four times the field label rate (250 g ai/ha). […] Another protocol for evaluation included treatment with imidazolinone herbicides as well as sulfonylurea and glyphosate herbicides. In these tests, GAT-HRA maize was treated with various combinations of Lightning® (imazapyr and imazethapyr), Basis® (rimsulfuron and thifensulfuron-methyl) and WeatherMAX® (glyphosate potassium salt). These herbicides were applied at the V2 stage as follows: Lightning® at twice the field label rate (1.8 oz ai/ac (133 ml ai/ha)), Basis® at twice the field label rate (0.5 oz ai/ac (36.9 ml ai/ha)) and WeatherMax® at four times the field label rate (43 oz ai/ac). Fourteen days after the treatment application, the plants were evaluated. […] “Field label rate” refers to the application rate specified on the product label. Where the application rate for a particular situation is a range of rates, as used herein, the term “field label rate” indicates the upper end of that range. […]

control maize = assay: as above; format: in vivo; settings: 200 g ai/ha (metsulfuron-methyl 35 g ai/ha)
[5] = tested on: Soybeans comprising the lead GAT7 event and also having HRA; assay: Greenhouse test confirming the field trial (Example 6B); format: in vivo, soybean; settings: GAT/HRA Soybeans
Excerpt: Example 6B provides greenhouse data that confirms the field trial data provided above in Example 6A. Soybeans comprising the lead GAT7 event and also having HRA were used in the studies.

[6] = tested on: Hairy Fleabane (Conyza bonariensis), glyphosate sensitive biotype; assay: Control of hairy fleabane by glyphosate, metsulfuron-methyl and two additives; format: in vivo; settings: 10-15 leaf stage, 200 L ha^−1
Description: This example included the same treatments as used in Example 11, except the treatments were carried out on a glyphosate sensitive biotype of Kleinskraalhans (Conyza bonariensis).

[7] = tested on: non-glyphosate resistant ryegrass; assay: Control of ryegrass by glyphosate, metsulfuron-methyl and two additives; format: in vivo; settings: metsulfuron-methyl (BRUSH-OFF) alone
Description: The example was conducted on non-glyphosate resistant ryegrass. As provided in Table 23, all treatments that included glyphosate [180 g a.i. L ha^−1 (0.5 L glyphosate (SCAT®))] plus metsulfuron-methyl (BRUSH-OFFS®) (5 and 10 g ha^−1) gave 100% control of the ryegrass.

[8] = preemergence, 200 g/ha, 0% no injury, 100% plant death, mean of four replications
[9] = preemergence, 200 g/ha, mean of four replications
[10] = 200 g/ha, mean of four replications
[11] = Zea mays, post-emergence, 200 g/ha, mean of four replications
[12] = Zea mays, post-emergence, 1870 g/ha

CCOc1nc(F)cc2nc(S(=O)(=O)Nc3c(Cl)cccc3C(=O)OC)nn12 [Chloransulam-methyl, methyl 3-chloro-2-[[(5-ethoxy-7-fluoro-[1,2,4]triazolo [1,5-c]pyrimidin-2-yl)sulfonyl]amino]benzoate]
Crop visual injury at 200 g/ha [1, 8]: 3% | Fresh Weight [1, 9]: 5.5 g | Crop visual injury at 200 g/ha [2, 8]: 3% | Fresh Weight [3, 10]: 6.8 g | % visual injury to corn at 200 g/ha [3, 11]: 96% | Visual crop injury (%) at 200 g/ha [4, 11]: 3%

CCOC(=O)c1ccccc1S(=O)(=O)NC(=O)Nc1nc(Cl)cc(OC)n1 [Chlorimuron-ethyl, ethyl 2-[[[[(4-chloro-6-methoxy-2-pyrimidinyl)amino]carbonyl]amino]sulfonyl]-benzoate]
damage from the treatment (GAT-HRA maize): no significant damage | damage from the treatment (control maize): severely damaged or killed

COc1nn(C(=O)NS(=O)(=O)c2ccccc2OC(F)(F)F)c(=O)n1C [Flucarbazone Na^+, 4,5-dihydro-3-methoxy-4-methyl-5-oxo-N-[[2-(trifluoromethoxy)phenyl]sulfonyl]-1H-1,2,4-triazole-1-carboxamide]
Crop visual injury at 200 g/ha [1, 8]: 100% | Fresh Weight [1, 9]: 0.0 g | Crop visual injury at 200 g/ha [2, 8]: 40% | Fresh Weight [3, 10]: 3.1 g | % visual injury to corn at 200 g/ha [3, 11]: 100% | Fresh Weight [4, 10]: 86.0 g | Visual crop injury (%) at 200 g/ha [4, 11]: 14%

COC(=O)c1ccc(C(F)(F)F)nc1S(=O)(=O)NC(=O)Nc1nc(OC)cc(OC)n1 [Flupyrsulfuron-methyl Na^+, methyl 2-[[[[(4,6-dimethoxy-2-pyrimidinyl)amino]carbonyl]amino]sulfonyl]-6-(trifluoromethyl)-3-pyridinecarboxylate]
Crop visual injury at 200 g/ha [1, 8]: 87% | Crop visual injury at 200 g/ha [2, 8]: 90% | Fresh Weight [3, 10]: 5.2 g | % visual injury to corn at 200 g/ha [3, 11]: 95% | Visual crop injury (%) at 200 g/ha [4, 11]: 4%

CP(=O)(O)CCC(N)C(=O)O (centres unmarked) [Glufosinate ammonium]
Fresh Weight ([3]; 1870 g/ha): 2.4 g | % visual injury to corn at 1870 g/ha [3, 12]: 99% | Fresh Weight ([4]; 1870 g/ha): 112.3 g | Visual crop injury (%) at 1870 g/ha [4, 12]: 1%

CC(C)C1(C)N=C(c2ncccc2C(=O)O)NC1=O (centres unmarked) [Imazapyr]
damage from the treatment (GAT-HRA maize): no significant damage | damage from the treatment (control maize): severely damaged or killed

CCc1cnc(C2=NC(C)(C(C)C)C(=O)N2)c(C(=O)O)c1 (centres unmarked) [Imazethapyr]
% Growth Reduction ([5]; Rimsulfuron 0 + Imazethapyr 560 g ai/ha, Treatment # 4): −1% | % Growth Reduction ([5]; Rimsulfuron 0 + Imazethapyr 1024 g ai/ha, Treatment # 5): 10%

COC(=O)c1ccc(I)cc1S(=O)(=O)NC(=O)Nc1nc(C)nc(OC)n1 [Iodosulfuron-methyl Na^+, methyl 4-iodo-2-[[[[(4-methoxy-6-methyl-1,3,5-triazin-2-yl)amino]carbonyl]amino]sulfonyl]benzoate]
Crop visual injury at 200 g/ha [1, 8]: 92% | Crop visual injury at 200 g/ha [2, 8]: 5% | Fresh Weight [3, 10]: 3.5 g | % visual injury to corn at 200 g/ha [3, 11]: 100% | Fresh Weight [4, 10]: 95.0 g | Visual crop injury (%) at 200 g/ha [4, 11]: 1%

COC(=O)c1ccccc1S(=O)(=O)NC(=O)Nc1nc(C)nc(OC)n1 [Metsulfuron-methyl (BRUSH-OFF ®)]
Control (%) ([6]; metsulfuron-methyl (BRUSH-OFF) 5 g/ha): 100% | Control (%) ([6]; metsulfuron-methyl (BRUSH-OFF) 10 g/ha): 100%

COC(=O)c1ccccc1S(=O)(=O)NC(=O)Nc1nc(C)nc(OC)n1 [Metsulfuron-methyl, methyl 2-[[[[(4-methoxy-6-methyl-1,3,5-triazin-2-yl)amino]carbonyl]amino]sulfonyl]benzoate]
damage from the treatment (GAT-HRA maize): no significant damage | damage from the treatment (control maize): severely damaged or killed | effect on its own [7]: did nothing accept stunt the ryegrass plants slightly

CCCOc1nn(C(=O)NS(=O)(=O)c2ccccc2C(=O)OC)c(=O)n1C [Propoxycarbazone Na^+, methyl 2-[[[(4,5-dihydro-4-methyl-5-oxo-3-propoxy-1H-1,2,4-triazol-1-yl)carbonyl]amino]sulfonyl]benzoate]
Crop visual injury at 200 g/ha [1]: 100% | Fresh Weight [1, 9]: 0.6 g | Crop visual injury at 200 g/ha [2]: 100% | Fresh Weight [3, 10]: 1.9 g | % visual injury to corn at 200 g/ha [3, 11]: 100% | Visual crop injury (%) at 200 g/ha [4, 11]: 9%

COc1cc(OC)nc(Sc2cccc(Cl)c2C(=O)[O-])n1.[Na+] [Pyrithiobac Na^+]
Fresh Weight [1, 9]: 0.0 g | % Visual Injury [3, 10]: 100% | Fresh Weight [3, 10]: 2.8 g | % Visual Injury [4, 10]: 9%

COC(=O)c1ccccc1S(=O)(=O)NC(=O)Nc1nc(C)cc(C)n1 [Sulfometuron-methyl, methyl 2-[[[[(4,6-dimethyl-2-pyrimidinyl)amino]carbonyl]amino]sulfonyl]-benzoate]
Fresh Weight [3, 10]: 2.0 g

COc1cc(OC)nc(NC(=O)NS(=O)(=O)c2ncccc2OCC(F)(F)F)n1 [Trifloxysulfuron Na^+, N-[[(4,6-dimethoxy-2-pyrimidinyl)amino]-carbonyl]-3-(2,2,2-trifluoroethoxy)-2-pyridinesulfonamide]
Crop visual injury at 200 g/ha [1, 8]: 100% | Fresh Weight [1, 9]: 0.0 g | Crop visual injury at 200 g/ha [2, 8]: 0% | Fresh Weight [2, 9]: 50.8 g | Fresh Weight [3, 10]: 1.0 g | % visual injury to corn at 200 g/ha [3, 11]: 100% | Fresh Weight [4, 10]: 86.6 g | Visual crop injury (%) at 200 g/ha [4, 11]: 29%

COC(=O)c1cccc(C)c1S(=O)(=O)NC(=O)Nc1nc(OCC(F)(F)F)nc(N(C)C)n1 [Triflusulfuron-methyl]
Fresh Weight [1, 9]: 26.3 g | Fresh Weight [2, 9]: 53.5 g | % Visual Injury [3, 10]: 100% | Fresh Weight [3, 10]: 2.1 g | % Visual Injury [4, 10]: 8% | Fresh Weight [4, 10]: 110.9 g

O=C(O)CNCP(=O)(O)O [glyphosate (ROUNDUP ®)]
Control (%) ([6]; glyphosate (ROUNDUP, 360 g a.i. L^−1) 0.5 L/ha): 12%

Imazamethabenz-methyl
Fresh Weight [1, 9]: 36.2 g | Fresh Weight [2, 9]: 48.5 g | % Visual Injury [3, 10]: 11% | Fresh Weight [3, 10]: 66.9 g | % Visual Injury [4, 10]: 16% | Fresh Weight [4, 10]: 95.0 g
